Experimental data published in patent US5851782A, “Inhibitors of ceramidase” (Duke University, priority 1996, dated 1998).

Key:
acid ceramidase = target: T1, acid ceramidase (Homo sapiens, UniProt Q13510); assay: Acid ceramidase activity in vitro at pH 4.5; type: biochemical; parameters: Ceramidase activity was determined from total homogenates of HL-60 cells; endogenous in cells; host or cells: HL-60 cells; settings: 50 μM
T1 sequence (Q13510 22-395): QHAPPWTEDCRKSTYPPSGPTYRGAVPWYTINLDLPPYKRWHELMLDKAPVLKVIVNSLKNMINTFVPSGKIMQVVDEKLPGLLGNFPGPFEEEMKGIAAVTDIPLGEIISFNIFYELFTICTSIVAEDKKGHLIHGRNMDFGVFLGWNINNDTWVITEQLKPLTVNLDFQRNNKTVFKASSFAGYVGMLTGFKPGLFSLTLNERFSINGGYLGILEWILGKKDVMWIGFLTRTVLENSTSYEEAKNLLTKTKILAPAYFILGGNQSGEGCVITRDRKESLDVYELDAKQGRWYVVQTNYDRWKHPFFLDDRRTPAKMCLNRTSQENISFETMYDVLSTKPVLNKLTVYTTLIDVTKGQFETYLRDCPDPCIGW
Experimental: Measurement of ceramidase activity in HL-60 cells. Ceramidase activity in HL-60 cells was measured by a modification of the method of Gatt and Yavin (Methods Enzymol. 14:139 (1969)). Cells were disrupted by sonication in 0.25M sucrose, 1 mM EDTA, and centrifuged at 10,000×g for 10 min after which the supernatant was centrifuged at 100,000×g for 60 min. Ten μl of 1 mM ceramide substrate ([^3 H]C16 -ceramide) was mixed with 100 μl of Triton X-100 (0.1%) in chloroform/methanol, 2:1, and 100 μl of 0.2% sodium cholate in chloroform/methanol, 2:1, after which the solvent was evaporated under N2 at 70° C. To this mixture, 30 μl of water was added and the tubes were heated for 5 s in an 80° C. water bath and then put on ice. Fifty μl of the appropriate buffer depending on desired pH was added followed by 20 μl of 50 mM MgCl2 and 100 μl of cell extract. In experiments using inhibitors, the desired inhibitor was added in ethanol either with the substrate or directly to the final solution. The reaction mixture was incubated for 1 h at 37° C. The ^3 H-fatty acid products of ceramidase were separated by the addition of 2 ml of Dole's solution (isopropyl alcohol, heptane, NaOH), 1.2 ml of heptane, and 1 ml of water. After vortexing and centrifugation, the upper phase was discarded and the lower phase was washed twice with heptane and the upper phase discarded each time. […]

[1] = test system: ceramidase in HL-60 cells; assay: Inhibition of L-e-MAPP metabolism in cells (ceramidase activity in cells); type: cell-based, human
Experimental: Metabolism studies. Lipids from cells treated with ^3 H-labeled compounds were extracted (Bligh & Dyer method), dried, resuspended in chloroform/methnol (10:1, v/v), and subjected to separation by TLC in chloroform/methanol (4:1, v/v). Spots containing radioactive compounds were scraped and radioactivity was measured using a scintillation counter.
Since D-e-MAPP inhibits ceramidase in cells, then it should also protect L-e-MAPP from metabolic degradation. Therefore, the effects of D-e-MAPP on metabolism of L-e-MAPP were examined. HL-60 cells were treated with tritium-labeled L-e-MAPP (3 μM), and the metabolism of L-e-MAPP was evaluated in the presence and absence of 3 μM D-e-MAPP. […] The effects of D-e-MAPP on metabolism of L-e-MAPP were dose dependent with most of the inhibition occurring at levels of D-e-MAPP of 1-3 μM (FIG. 8B).

[2] = test system: endogenous ceramide levels in HL-60 cells; settings: HL-60, TLC of ceramide phosphates
Experimental: Ceramide and diacylglycerol levels were measured on total liquid extracts using the diacylglycerol kinase assay (Jayadev et al, J. Biol. Chem. 270:2047 (1995)).
Therefore, HL-60 cells were treated with 5 μM D-e-MAPP, ethanol vehicle or L-e-MAPP for 0-24 h. At the indicated time points (FIG. 4A), total lipids were extracted and endogenous ceramide levels were measured by the Escherichia coli diacylglycerol kinase assay.
The upper spot of ceramide phosphate co-migrated with synthetic D-erythro-C18 dihydroceramide phosphate whereas the lower spot co-migrated with D-erythro-C18 ceramide phosphate.

CCCCCCCCCCCCCC(=O)N[C@H](C)[C@@H](O)c1ccccc1 [D-e-MAPP, D-erythro-2-(N-myristolyamino)-1-phenyl-1-propanol]
inhibition at 50 µM (acid ceramidase): < 10% | effect on breakdown of L-e-MAPP in cells ([1]; HL-60, 3 μM tritium-labeled L-e-MAPP, 3 μM D-e-MAPP): prevented the breakdown of L-e-MAPP | levels at which most of the inhibition of L-e-MAPP metabolism occurs ([1]; HL-60, dose dependence): 1 to 3 µM | selectivity of increase, ceramide versus dihydroceramide [2]: selective increase in ceramide but not dihydroceramide levels
